PMC2772868 (Biochemistry, 2009)

Legend:
[1] = target: LacI (lactose repressor protein) (Escherichia coli, UniProt P03023); type: binding
LacI wild-type = LacI wild-type (Escherichia coli, UniProt P03023 1-360); test: filter binding
LacI wild-type, sequence (P03023 whole entry): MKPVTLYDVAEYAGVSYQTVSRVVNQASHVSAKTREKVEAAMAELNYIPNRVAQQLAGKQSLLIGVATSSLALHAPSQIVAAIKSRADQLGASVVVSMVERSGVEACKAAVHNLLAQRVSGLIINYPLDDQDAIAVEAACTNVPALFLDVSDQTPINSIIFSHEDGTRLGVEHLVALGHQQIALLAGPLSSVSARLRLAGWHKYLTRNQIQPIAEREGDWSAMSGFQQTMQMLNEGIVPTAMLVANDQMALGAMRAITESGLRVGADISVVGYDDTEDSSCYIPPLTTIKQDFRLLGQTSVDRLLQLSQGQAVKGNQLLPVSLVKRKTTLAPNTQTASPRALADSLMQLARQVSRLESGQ

LacI (lactose repressor protein), sequence (P03023 whole entry): as above

`CC(C)S[C@@H]1O[C@H](CO)[C@H](O)[C@H](O)[C@H]1O` [IPTG, isopropyl-β-D-thiogalactoside] gave an EC50 [1] of 2200 nM.

B1: 40-bp natural lac operator (dsDNA)
DNA 1: TGTTGTGTGGAATTGTGAGCGGATAACAATTTCACACAGG
DNA 2: CCTGTGTGAAATTGTTATCCGCTCACAATTCCACACAACA
B1 was tested, and the Kd (LacI wild-type) was 0.022 ± 0.002 nM.
